Patent US8715754B2, “Chromobacterium bioactive compositions and metabolites” (Marrone Bio Innovations, Inc., priority 2010, dated 2014)

Tests used:
[1] = test system: Cabbage looper (Trichoplusia ni) or Beet armyworm (Spodoptera exigua); test: Screening of fractions and pure compounds in feeding assay; type: in vivo; details: HPLC-purified compounds
Procedure: The culture broth derived from the 10-L fermentation C. substugae in L-broth is extracted with Amberlite XAD-7 resin (Asolkar et al., 2006) by shaking the cell suspension with resin at 225 rpm for two hours at room temperature. The resin and cell mass are collected by filtration through cheesecloth and washed with DI water to remove salts. The resin, cell mass, and cheesecloth are then soaked for 2 h in acetone/methanol (50/50) after which the acetone/methanol is filtered and dried under vacuum using rotary evaporator to give the crude extract. The crude extract is then fractionated by using Sephadex LH 20 size exclusion chromatography (CH2Cl2/CH3OH; 50/50) to give 7 fractions (FIG. 1). These fractions are then concentrated to dryness using rotary evaporator and the resulting dry residues are screened for biological activity using a feeding assay with Cabbage looper (Trichoplusia ni) or Beet armyworm (Spodoptera exigua). The active fractions are then subjected to reversed phase HPLC (Spectra System P4000 (Thermo Scientific) to give pure compounds, which are then screened in above mentioned bioassays to locate/identify the active compounds. To confirm the identity of the compound, additional spectroscopic data such as LC/MS and NMR is recorded.

[2] = test system: Cabbage Looper (Trichoplusia ni); test: whole plant or invertebrate; type: in vivo
Procedure: Toxicity of the compound of interest in fraction 1 (F1) was confirmed in an in vitro assay using 1st instar cabbage looper larvae as a test object.
Two hundred microliters of commercial cabbage looper diet was distributed in each well of a 96-well microplate. After the diet had solidified, 100 uL of solution containing 50 uL of extract (corresponding to four individual peaks found in fraction 1; H1-H4), 350 uL EtOH and 600 uL sterile DI water was pipetted in each well, after which the plate was dried using a hand-held fan. The amount of extract in each well was 10 micrograms. Each treatment was replicated eight times, and a mixture of pure ethanol and water was used as a negative control.
One test insect (1st instar larvae of cabbage looper) was placed in each well, and the plate was covered with an adhesive seal. The seal was punctured for aeration, and the sealed plate was incubated at 26° C. for four days.
The 96-well plate assay system described in the previous example was used to determine the concentration of pure violacein needed to kill 50% of the 1st instar cabbage looper larvae. Based on the data, violacein is a potent insecticide with an estimated LC50 value of 7*10^−6 micrograms per well for cabbage looper larvae in an in vitro diet-overlay assay.

[3] = test system: Cabbage Loopers, Trichoplusia ni; test: Synergy test on treated artificial diet, cabbage loopers; type: in vivo
Procedure: (§1) Synergy tests were performed by treating artificial diet in 96-well plates and feeding treated diet to neonate larvae. 100 μL of treatment were pipetted into multiple wells of each plate. […] The diet was fan-dried to remove excess moisture. Neonate Beet Armyworm, Spodoptera exigua, or Cabbage Loopers, Trichoplusia ni, were transferred into each well of the multi-well plate. Infested plates were covered with adhesive plate sealer and a single small hole was poked into the sealer over each well to allow for aeration. Plates were stored in an incubator at 26° C., 16 h light/8 h dark cycle for […]. On the third and fourth day after infesting, mortality was scored.
(§2) The determination of a synergistic, antagonistic, or additive interaction was determined using the methods from (Colby 1967). Due to variation in bioassays, it was determined that ratios between 0 and 0.9 would be considered antagonistic, 0.9-1.1 ratios would be additive, and ratios above 1.1 would be considered synergistic relationships.
(§3) MBI-203 synergy with insecticides against Cabbage Loopers was tested. Chlorantranilipole (marketed as Coragen®, Dupont), Bacillus thuringiensis var. kurstaki (Dipel®, Valent Biosciences), Spinosad (marketed as Entrust®, Dow Agro Sciences), Spirotetramet (marketed as Movento®, Bayer Crop Science) and Pyrethrum/pyrethrins (marketed as Pyganic®, Arbico Organics) were tested with MBI-203. As noted above, except where indicated, LC50 concentrations of MBI-203 and insecticides were used.

[4] = test system: Beet Armyworm, Spodoptera exigua; test: Synergy test on treated artificial diet, beet armyworm; type: in vivo
Procedure: as §1, §2
as §3, with “Beet Army Worm (BAW)” for “Cabbage Loopers”, “used. […] Pyrethrum combinations with MBI-203 were antagonistic.” for “used.”

[5] = test system: root knot nematode Meloidogyne sp.; test: Mini drench test, root galling of cucumber (Zeck's gall index); type: in vivo, Meloidogyne incognita; details: 20 ppm
Procedure: MBI-203 was tested for its intrinsic activity against the root knot nematode Meloidogyne sp. in two mini drench tests.
Specifically MBI-203 was tested in a greenhouse assay conducted in 45 ml pots. Cucumber seeds cv. Toshka were sown directly into pots filled with a sandy loam soil. Ten days later pots were each treated with 5 ml of a suspension. Hereafter, pots were inoculated with 3000 eggs of M. incognita. Four replicates were prepared for each treatment and rate. The trial was harvested fourteen days after trial application and inoculation. Root galling was assessed according to Zeck's gall index (Zeck, 1971). Specific conditions are set forth below in Table 3.

[6] = Trichoplusia ni, 96 h, read-out: % mortality Day 4

Compound: O=C1NC(c2c[nH]c3ccccc23)=C/C1=C1\C(=O)Nc2ccccc21 [deoxyviolacein (3), deoxyviolacein]
- activity in feeding bioassay (active compound) [1]: active

Compound: chromamide A
- activity in feeding bioassay (active compound) [1]: active

Compound: O=C1NC(c2c[nH]c3ccc(O)cc23)=C/C1=C1\C(=O)Nc2ccccc21 (single isomer, unassigned) [Violacein, violacein]
- mortality at 1e-06 µg/disc [2, 6]: 14.2%
- mortality at 1e-05 µg/disc [2, 6]: 71.4%
- mortality at 0.0001 µg/disc [2, 6]: 100%
- mortality at 0.001 µg/disc [2, 6]: 100%
- mortality at 0.01 µg/disc [2, 6]: 100%
- mortality at 0.1 µg/disc [2, 6]: 100%
- mortality at 1 µg/disc [2, 6]: 100%
- mortality at 10 µg/disc [2, 6]: 100%
- estimated LC50 ([2]; in vivo): 7*10^−6 micrograms per well
- activity in feeding bioassay (active compound) [1]: active

Compound: CCOC(=O)OC1=C(c2cc(C)ccc2C)C(=O)N[C@]12CC[C@@H](OC)CC2 [Spirotetramet]
- Product alone Kill % ([3]; LC50 concentration): 23.8%
- Product alone Kill % ([3]; Spirotetramet 0.5X LC50): 41.5%
- Product alone Kill % ([4]; Spirotetramet 0.53X LC50): 42.9%
- Product alone Kill % ([4]; Spirotetramet 1.4X LC50): 77.5%

Compound: Spinosad
- Product alone Kill % ([3]; LC50 concentration): 54.3%
- Product alone Kill % ([4]; LC50 concentration): 68.7%

Compound: CNC(=O)c1cc(Cl)cc(C)c1NC(=O)c1cc(Br)nn1-c1ncccc1Cl [Chlorantranilipole]
- Product alone Kill % ([3]; LC50 concentration): 3%
- Product alone Kill % ([4]; LC50 concentration): 9.1%

Compound: CCOP(=O)(SC(C)CC)N1CCSC1=O (stereo not shown) [Fosthiazate]
- control ([5]; Mini drench test no. 1): 100%
- control ([5]; Mini drench test no. 2): 100%
